Laboratory results taken from paper PMC9663578, “A fluorogenic probe for predicting treatment response in non-small cell lung cancer with EGFR-activating mutations” (Nature Communications, 2022).
“And” between values parts separate entries of the source, which are not always exact repeats. Identical values can stand only once.

Key:
Test in all cases: Western blot of EGFR activation and downstream AKT and ERK1/2 phosphorylation
Format in all cases: cell-based, human
[1] = system: A431
Experimental: (§1) Western blotting analysis was performed to investigate the expression of EGFR and downstream signaling pathway in various cancer cells. Cells were added at a density of 5 × 10^5 per well in six-well plates and serum-starved in DMEM without FBS. […] After a PBS washing step, the cells were harvested and lysed in RIPA lysis buffer (Thermo Scientific, #89900) on ice for 20 min. After sonication, cell lysates were centrifuged at 12,000×g at 4 °C for 20 min. The supernatant was collected and protein concentration was determined by a BCA protein quantitation kit (Vazyme) and normalized to 2 mg/mL. Subsequently, 20 µL of protein sample was loaded to each lane and resolved on a 10% SDS-PAGE gel. After that, proteins on the gel were transferred onto polyvinylidene difluoride (PVDF) membranes (0.45 µm, Amersham Bioscience). PVDF membranes were blocked with 5% BSA blocking solution for 2 h at room temperature, followed by incubation with different primary antibodies (4 °C, overnight), including EGFR (#4267, 1:1000), phospho-EGFR (#3777, 1:1000), Akt (#4685, 1:1000), phospho-Akt (#4060, 1:1000), ERK1/2 (#4695, 1:1000), phospho-ERK1/2 (#4370, 1:2000) and GAPDH (#5174, 1:2000). Next, the membranes were washed by TBST buffer (Tris buffer with 0.1% Tween-20) for three times, followed by incubation with anti-rabbit IgG (HRP-linked antibody, #7074, 1:5000) for 1 h at room temperature. Finally, the blots were washed in PBST and immunoreactive proteins were detected using a luminal solution with ECL enhancer and H2O2 by ChemiDoc MP (BioRad) with Image Lab 6.0 software. The band density of each band was quantified and normalized to that of the corresponding GAPDH band to correct the possible differences in the content of protein loading. Each experiment was repeated 3 times for statistical analysis, and uncropped blots are in Source Data.

[2] = system: A549; details: for p-kinase / kinase pAKT/AKT / p-kinase / kinase pEGFR/EGFR / p-kinase / kinase pERK/ERK: Fig. 2j A549, DMSO = 1, n=1-3
Experimental: as §1

[3] = system: H1975; details: for p-kinase / kinase pAKT/AKT / p-kinase / kinase pEGFR/EGFR / p-kinase / kinase pERK/ERK: Fig. 2h H1975, DMSO = 1, n=1-3
Experimental: as §1

[4] = system: HCC827
Experimental: as §1

[5] = system: Hela; details: HX103 0 to 10 µM, EGF 25 ng/mL
Experimental: as §1

[6] = Fig. 2i A431, concentration 0.3 (unit not given), DMSO = 1, n=1-3
[7] = Fig. 2i A431, concentration 1 (unit not given), DMSO = 1, n=1-3
[8] = Fig. 2i A431, concentration 3 (unit not given), DMSO = 1, n=1-3
[9] = Fig. 2i A431, concentration 10 (unit not given), DMSO = 1, n=1-3
[10] = concentration 0.3 (unit not given)
[11] = concentration 1 (unit not given)
[12] = concentration 3 (unit not given)
[13] = concentration 10 (unit not given)

For COc1cc2c(Nc3ccc(F)c(Cl)c3)ncnc2cc1OCCCNc1ccc(S(=O)(=O)N(C)C)c2nonc12 [HX103], the “p-kinase / kinase pAKT/AKT” value [1, 6] was 0.604 and 0.491 and 0.502, the “p-kinase / kinase pERK/ERK” value [1, 6] was 0.593 and 0.802 and 0.793 and the “p-kinase / kinase pAKT/AKT” value [1, 7] was 0.33 and 0.312 and 0.321. For the same molecule, the “p-kinase / kinase pERK/ERK” value [1, 7] was 0.301 and 0.442 and 0.417, the “p-kinase / kinase pAKT/AKT” value [1, 8] was 0.264 and 0.189 and 0.222 and the “p-kinase / kinase pERK/ERK” value [1, 8] was 0.169 and 0.13 and 0.175. The “p-kinase / kinase pAKT/AKT” value [1, 9] was 0.241 and 0.197 and 0.219, the “p-kinase / kinase pEGFR/EGFR” value [1, 9] was 0.067 and 0.066 and 0.064 and the “effect on wild-type EGFR phosphorylation” value ([1]; HX103 0 to 10 µM, EGF 25 ng/mL) was “significantly inhibited”. The “p-kinase / kinase pAKT/AKT” value [2, 10] was 0.202 and 0.332 and 0.222, the “p-kinase / kinase pEGFR/EGFR” value [2, 10] was 0.116 and 0.065 and 0.105 and the “p-kinase / kinase pERK/ERK” value [2, 10] was 0.558 and 0.86 and 0.689. For the same molecule, the “p-kinase / kinase pAKT/AKT” value [2, 11] was 0.118 and 0.103 and 0.095, the “p-kinase / kinase pERK/ERK” value [2, 11] was 0.486 and 0.455 and 0.485 and the “p-kinase / kinase pEGFR/EGFR” value [2, 12] was 0.07 and 0.045 and 0.073. The “p-kinase / kinase pERK/ERK” value [2, 12] was 0.34 and 0.535 and 0.512, the “p-kinase / kinase pAKT/AKT” value [2, 13] was 0.014 and 0.013 and 0.015 and the “p-kinase / kinase pERK/ERK” value [2, 13] was 0.39 and 0.424 and 0.512. For the same molecule, the “effect on wild-type EGFR phosphorylation” value ([2]; HX103 0 to 10 µM, EGF 25 ng/mL) was “significantly inhibited”, the “p-kinase / kinase pAKT/AKT” value [3, 10] was 0.698 and 0.724 and 0.636 and the “p-kinase / kinase pEGFR/EGFR” value [3, 10] was 0.558 and 0.543 and 0.573. For the same molecule, the “p-kinase / kinase pERK/ERK” value [3, 10] was 1.210 and 0.879 and 1.031, the “p-kinase / kinase pAKT/AKT” value [3, 11] was 0.488 and 0.317 and the “p-kinase / kinase pEGFR/EGFR” value [3, 11] was 0.199 and 0.313 and 0.331. The “p-kinase / kinase pERK/ERK” value [3, 11] was 0.535 and 0.443 and 0.459, the “p-kinase / kinase pAKT/AKT” value [3, 12] was 0.579 and 0.573 and 0.560 and the “p-kinase / kinase pERK/ERK” value [3, 12] was 0.840 and 0.618 and 0.696. For the same molecule, the “p-kinase / kinase pAKT/AKT” value [3, 13] was 0.468 and 0.342 and 0.500, the “p-kinase / kinase pEGFR/EGFR” value [3, 13] was 0.219 and 0.161 and 0.276 and the “p-kinase / kinase pERK/ERK” value [3, 13] was 0.660 and 0.681 and 0.939. The “effect on phosphorylation of EGFR and downstream proteins” value ([3]; HX103 0 to 10 µM, EGF 25 ng/mL) was “a certain resistance”, the “p-kinase / kinase pAKT/AKT” value ([4]; Fig. 2g HCC827, concentration 0.3 (unit not given), DMSO = 1, n=1-3) was 0.4984 and 0.298 and 0.4432 and the “p-kinase / kinase pAKT/AKT” value ([4]; Fig. 2g HCC827, concentration 1 (unit not given), DMSO = 1, n=1-3) was 0.1684 and 0.1251 and 0.1468. The “p-kinase / kinase pERK/ERK” value ([4]; Fig. 2g HCC827, concentration 10 (unit not given), DMSO = 1, n=1-3) was 0.1947 and 0.3677 and 0.3512, the “effect on phosphorylation of EGFR and downstream proteins” value ([4]; HX103 0 to 10 µM, EGF 25 ng/mL) was “inhibited the phosphorylation of EGFR and the downstream proteins” and the “effect on wild-type EGFR phosphorylation” value [5] was “significantly inhibited”.
